Results published in ChEMBL document CHEMBL1145958, “Furoyl and benzofuroyl pyrroloquinolones as potent and selective PDE5 inhibitors for treatment of erectile dysfunction” (J Med Chem, 2003).

Assays:
[1] = Selective inhibition of PDE5 versus PDE6 in retinal rod
[2] = Selective inhibition of PDE5 versus PDE6 in retinal cone
[3] = target: T1, cGMP-specific 3',5'-cyclic phosphodiesterase (Homo sapiens, UniProt O76074); test: Inhibitory activity against Phosphodiesterase 5 (PDE5) was evaluated
[4] = species: Canis familiaris; test: Effective dose in dogs; format: functional; details: Canis lupus familiaris
[5] = species: Canis familiaris; test: Dose required for potentiated ICP increase in dogs; format: functional, Canis lupus familiaris
[6] = target: T1, cGMP-specific 3',5'-cyclic phosphodiesterase; test: Inhibition of PDE5

## CN1CCN(C(=O)c2ccc(-c3ccc(C(=O)N4Cc5c(nc6ccccc6c5O)C4c4ccc5c(c4)OCO5)o3)cc2)CC1 (single isomer, unassigned; (-)) [listing 1 of 2 here]
[1]
  Ratio: 13
[2]
  Ratio: 13.2

## N#Cc1ccc(-c2ccc(C(=O)N3Cc4c(nc5ccccc5c4O)C3c3ccc4c(c3)OCO4)o2)cc1 (stereo not drawn)
[3]
  Ki: 2.71 nM

## O=C(c1ccccc1)N1Cc2c(nc3ccccc3c2O)C1c1ccc2c(c1)OCO2 (stereo not drawn)
[3]
  Ki: 2.49 nM

## O=C(c1ccc(-c2ccc(OCCN3CCCC3)cc2)o1)N1Cc2c(nc3ccccc3c2O)C1c1ccc2c(c1)OCO2 (stereo not drawn)
[3]
  Ki: 0.76 nM

## O=C(c1ccc(-c2ccco2)o1)N1Cc2c(nc3ccccc3c2O)C1c1ccc2c(c1)OCO2 (stereo not drawn)
[3]
  Ki: 4.66 nM

## CS(=O)(=O)Nc1ccc(-c2ccc(C(=O)N3Cc4c(nc5ccccc5c4O)C3c3ccc4c(c3)OCO4)o2)cc1 (stereo not drawn)
[4]
  ED50: 0.284 mg/kg
[3]
  Ki: 0.24 nM
[5]
  Dose: 0.3 mg/kg

## CN(C)c1ccc(-c2ccc(C(=O)N3Cc4c(nc5ccccc5c4O)C3c3ccc4c(c3)OCO4)o2)cc1 (stereo not drawn)
[3]
  Ki: 3.74 nM

## O=C(c1cc2ccc(O)cc2o1)N1Cc2c(nc3ccccc3c2O)C1c1ccc2c(c1)CCO2 (stereo not drawn)
[1]
  Ratio: 291
[2]
  Ratio: 646
[3]
  Ki: 1.74 nM

## COC(=O)c1ccc(-c2ccc(C(=O)N3Cc4c(nc5ccccc5c4O)C3c3ccc4c(c3)OCO4)o2)cc1 (stereo not drawn)
[3]
  Ki: 0.99 nM

## O=C(c1ccc(-c2cccc(CO)c2)o1)N1Cc2c(nc3ccccc3c2O)C1c1ccc2c(c1)OCO2 (stereo not drawn)
[3]
  Ki: 0.47 nM

## COc1ccc(-c2ccc(C(=O)N3Cc4c(nc5ccccc5c4O)C3c3ccc4c(c3)OCO4)o2)cc1 (stereo not drawn)
[3]
  Ki: 1.71 nM

## O=C(c1ccc(-c2cccnc2)o1)N1Cc2c(nc3ccccc3c2O)C1c1ccc2c(c1)OCO2 (stereo not drawn)
[1]
  Ratio: 144
[2]
  Ratio: 108
[3]
  Ki: 0.15 nM

## O=C(c1cc2ccc(O)cc2o1)N1Cc2c(nc3ccccc3c2O)C1c1ccc2c(c1)OCO2 (stereo not drawn)
[1]
  Ratio: 31
[2]
  Ratio: 29
[3]
  Ki: 0.35 nM

## O=C(c1ccc(-c2cccnc2)o1)N1Cc2c(nc3ccccc3c2O)C1c1ccc2c(c1)CCO2 (stereo not drawn)
[3]
  Ki: 0.53 nM

## Cc1ccc(-c2ccc(C(=O)N3Cc4c(nc5ccccc5c4O)C3c3ccc4c(c3)OCO4)o2)cc1 (stereo not drawn)
[3]
  Ki: 2.64 nM

## O=C(c1ccc(-c2ccc(CO)cc2)o1)N1Cc2c(nc3ccccc3c2O)C1c1ccc2c(c1)OCO2 (stereo not drawn)
[3]
  Ki: 0.61 nM

## CN1CCN(C(=O)c2ccc(-c3ccc(C(=O)N4Cc5c(nc6ccccc6c5O)C4c4ccc5c(c4)OCO5)o3)cc2)CC1 (single isomer, unassigned; (-)) [listing 2 of 2 here]
[3]
  Ki: 0.2 nM

## O=C(O)c1ccc(-c2ccc(C(=O)N3Cc4c(nc5ccccc5c4O)C3c3ccc4c(c3)OCO4)o2)cc1 (stereo not drawn)
[3]
  Ki: 1.01 nM

## O=C(c1ccc(-c2cccc(C(F)(F)F)c2)o1)N1Cc2c(nc3ccccc3c2O)C1c1ccc2c(c1)OCO2 (stereo not drawn)
[3]
  Ki: 0.98 nM

## O=C(c1ccc(-c2ccncc2)o1)N1Cc2c(nc3ccccc3c2O)C1c1ccc2c(c1)OCO2 (stereo not drawn)
[1]
  Ratio: 23
[2]
  Ratio: 34
[3]
  Ki: 0.31 nM

## CN1CCN(C(=O)c2ccc(-c3ccc(C(=O)N4Cc5c(nc6ccccc6c5O)C4c4ccc5c(c4)OCO5)o3)cc2)CC1 (racemic) [listing 1 of 2 here]
[3]
  Ki: 1.82 nM

## O=C(c1ccc(-c2ccc([N+](=O)[O-])cc2)o1)N1Cc2c(nc3ccccc3c2O)C1c1ccc2c(c1)OCO2 (stereo not drawn)
[3]
  Ki: 0.61 nM

## O=Cc1ccc(-c2ccc(C(=O)N3Cc4c(nc5ccccc5c4O)C3c3ccc4c(c3)OCO4)o2)cc1 (stereo not drawn)
[6]
  Ki: 2.59 nM

## O=C(c1ccc(-c2ccccc2)o1)N1Cc2c(nc3ccccc3c2O)C1c1ccc2c(c1)OCO2 (stereo not drawn)
[3]
  Ki: 2.09 nM

## O=C(c1ccc(Br)o1)N1Cc2c(nc3ccccc3c2O)C1c1ccc2c(c1)OCO2 (stereo not drawn)
[3]
  Ki: 2.07 nM

## CN1CCN(C(=O)c2ccc(-c3ccc(C(=O)N4Cc5c(nc6ccccc6c5O)C4c4ccc5c(c4)CCO5)o3)cc2)CC1 (stereo not drawn)
[1]
  Ratio: 13
[2]
  Ratio: 12

## CN1CCN(C(=O)c2ccc(-c3ccc(C(=O)N4Cc5c(nc6ccccc6c5O)C4c4ccc5c(c4)OCO5)o3)cc2)CC1 (racemic) [listing 2 of 2 here]
[1]
  Ratio: 2
[2]
  Ratio: 2

## O=C(c1ccc(-c2ccc(O)cc2)o1)N1Cc2c(nc3ccccc3c2O)C1c1ccc2c(c1)OCO2 (stereo not drawn)
[3]
  Ki: 0.73 nM

## O=C(c1ccc(-c2cccc([N+](=O)[O-])c2)o1)N1Cc2c(nc3ccccc3c2O)C1c1ccc2c(c1)OCO2 (stereo not drawn)
[3]
  Ki: 1.3 nM

## O=C(c1ccc(-c2ccsc2)o1)N1Cc2c(nc3ccccc3c2O)C1c1ccc2c(c1)OCO2 (stereo not drawn)
[3]
  Ki: 0.71 nM
